Data as given in patent US20060009478A1, “Methods for the treatment of back pain” (priority 2003, published 2006).

Tested on: patients with moderate to severe chronic low back pain
Experiment: AE days and average AE days of opioid associated AEs, low back pain study
Settings: ITT population
[1] = (total days with AE)/(days on study drug)
[2] = AE stop date − AE start date + 1

Question: What does the source list for `COc1ccc2c3c1O[C@H]1C(=O)CC[C@@]4(O)[C@@H](C2)N(C)CC[C@]314` [OXY QID, oxycodone]?
Answer: Average AE day for constipation, maximum [1]: (1.13); Average AE day for constipation, mean [1]: 0.24; Average AE day for constipation, median [1]: 0.05; Average AE day for constipation, minimum [1]: 0.00; Average AE day for dizziness, maximum [1]: 1.73; Average AE day for dizziness, mean (SD) [1]: 0.14 (0.281); Average AE day for dizziness, median [1]: 0.01; Average AE day for dizziness, minimum [1]: 0.00; Average AE day for nausea, maximum [1]: 2.00; Average AE day for nausea, mean (SD) [1]: 0.14 (0.266); Average AE day for nausea, median [1]: 0.03; Average AE day for nausea, minimum [1]: 0.00; Average AE day for pruritus, maximum [1]: 2.00; Average AE day for pruritus, mean (SD) [1]: 0.23 (0.355); Average AE day for pruritus, median [1]: 0.03; Average AE day for pruritus, minimum [1]: 0.00; Average AE day for somnolence, maximum [1]: 2.00; Average AE day for somnolence, mean (SD) [1]: 0.31 (0.392); Average AE day for somnolence, median [1]: 0.11; Average AE day for somnolence, minimum [1]: 0.00; Average AE day for vomiting, maximum [1]: 1.00; Average AE day for vomiting, mean (SD) [1]: 0.02 (0.087); Average AE day for vomiting, median [1]: 0.00; Average AE day for vomiting, minimum [1]: 0.00; AE day for constipation, maximum [2]: 114.00; AE day for constipation, mean (SD) [2]: 17.59 (27.733); AE day for constipation, median [2]: 3.00; AE day for constipation, minimum [2]: 0.00; AE day for dizziness, maximum [2]: 114.00; AE day for dizziness, mean (SD) [2]: 8.59 (18.871); AE day for dizziness, median [2]: 1.00; AE day for dizziness, minimum [2]: 0.00; AE day for nausea, maximum [2]: 118.00; AE day for nausea, mean (SD) [2]: 8.16 (16.511); AE day for nausea, median [2]: 2.00; AE day for nausea, minimum [2]: 0.00; AE day for pruritus, maximum [2]: 124.00; AE day for pruritus, mean (SD) [2]: 15.92 (28.817); AE day for pruritus, median [2]: 2.00; AE day for pruritus, minimum [2]: 0.00; AE day for somnolence, maximum [2]: 123.00; AE day for somnolence, mean (SD) [2]: 21.53 (32.137); AE day for somnolence, median [2]: 6.00; AE day for somnolence, minimum [2]: 0.00; AE day for vomiting, maximum [2]: 18.00; AE day for vomiting, mean (SD) [2]: 1.09 (2.839); AE day for vomiting, median [2]: 0.00; AE day for vomiting, minimum [2]: 0.00
